Structures are written as SMILES. “And” between values parts separate entries of the source, which are not always exact repeats. Identical values can stand only once. Toxic doses and inconclusive results are not listed.

The assay deals with P388 leukemia ip, CD2F1 mice, survival T/C. As to the kind of experiment: NCI In Vivo Anticancer Drug Screen. Data for tumor model P388 Leukemia (intraperitoneal) in CD2F1 (CDF1) mice. The following applies: endpoint: median survival time, higher = longer survival. In short, it runs like this:
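Mice carrying the transplanted tumor received test compound or vehicle. Survival was recorded in each group, and the value is the treated-group measurement divided by that of the vehicle-treated control group.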

[1] abbreviates: dose: 100.0 mg/kg/injection, schedule: Q01DX005 (ip), vehicle: saline.
The mark [2] stands for this setting: dose: 200.0 mg/kg/injection, schedule: Q01DX005 (ip), vehicle: saline.
Setting [3] is: dose: 50.0 mg/kg/injection, schedule: Q01DX009 (ip), vehicle: saline.
Where [4] appears, read: dose: 100.0 mg/kg/injection, schedule: Q01DX009 (ip), vehicle: saline.
The mark [5] stands for this setting: dose: 200.0 mg/kg/injection, schedule: Q01DX009 (ip), vehicle: saline.
[6] abbreviates: dose: 60.0 mg/kg/injection, schedule: Q01DX005 (ip), vehicle: saline with Tween-80.
Setting [7] is: dose: 120.0 mg/kg/injection, schedule: Q01DX005 (ip), vehicle: saline with Tween-80.
[8] abbreviates: dose: 240.0 mg/kg/injection, schedule: Q01DX005 (ip), vehicle: saline with Tween-80.
Where [9] appears, read: dose: 50.0 mg/kg/injection, schedule: Q01DX009 (ip), vehicle: saline with Tween-80.
The mark [10] stands for this setting: dose: 100.0 mg/kg/injection, schedule: Q01DX009 (ip), vehicle: saline with Tween-80.
[11] abbreviates: dose: 200.0 mg/kg/injection, schedule: Q01DX009 (ip), vehicle: saline with Tween-80.
[12] abbreviates: dose: 50.0 mg/kg/injection, schedule: Q01DX005 (ip), vehicle: Klucel (hydroxypropylcellulose) (HPC).
Setting [13] is: dose: 50.0 mg/kg/injection, schedule: Q01DX005 (ip), vehicle: saline with Tween-80.

On to `CCS1=C(C(C)=O)C(=O)OC(C)C1` (stereo not given), for which the T/C runs as follows: (dose: 50.0 mg/kg/injection, schedule: Q01DX005 (ip), vehicle: saline) 100 % of control; under setting [1], 100 % of control; under setting [2], 106 % of control.
Regarding `Cc1cc2c(cc1S(=O)(=O)O)C1C(C3C2C2(Cl)C(Cl)=C(Cl)C3(Cl)C2(Cl)Cl)C2(Cl)C(Cl)=C(Cl)C1(Cl)C2(Cl)Cl` (stereo not given), the T/C is 101 % of control under setting [3], 92 % of control under setting [4] and 92 % of control under setting [5].
On to `CCOC(=O)c1c(C)c2c(n1C)CCC(C(=O)OCC)C2=O` (stereo not given), for which the T/C was 107 % of control (dose: 50.0 mg/kg/injection, schedule: Q04DX003 (ip), vehicle: Klucel (hydroxypropylcellulose) (HPC)); 100 % of control (dose: 100.0 mg/kg/injection, schedule: Q04DX003 (ip), vehicle: Klucel (hydroxypropylcellulose) (HPC)); 91 % of control (dose: 200.0 mg/kg/injection, schedule: Q04DX003 (ip), vehicle: Klucel (hydroxypropylcellulose) (HPC)).
Take `CCCCC(=O)Oc1cc(=O)n(C)c2cc(C)n(C)c(=O)c12`: the T/C reads like this: (dose: 60.0 mg/kg/injection, schedule: Q01DX005 (ip), vehicle: Klucel (hydroxypropylcellulose) (HPC)) 98 % of control; (dose: 120.0 mg/kg/injection, schedule: Q01DX005 (ip), vehicle: Klucel (hydroxypropylcellulose) (HPC)) 103 % of control; (dose: 240.0 mg/kg/injection, schedule: Q01DX005 (ip), vehicle: Klucel (hydroxypropylcellulose) (HPC)) 106 % of control.
As for `O=C1c2ccccc2C(=O)c2c1ccc1nc(Cl)c(=O)[nH]c21`, the T/C is, setting by setting: under setting [6], 94 % of control; under setting [7], 97 % of control; under setting [8], 94 % of control.
With `CN(C)P(=O)(Oc1occc1C(C)(C)O)N(C)C`, the T/C (dose: 7.5 mg/kg/injection, schedule: Q01DX005 (ip), vehicle: saline) was 100 % of control and the T/C (dose: 15.0 mg/kg/injection, schedule: Q01DX005 (ip), vehicle: saline) is 102 % of control.
Take `O=NN(CCF)C(=O)Oc1ccc([N+](=O)[O-])cc1`: the T/C runs as follows: (dose: 12.5 mg/kg/injection, schedule: Q01DX001 (ip), vehicle: Klucel (hydroxypropylcellulose) (HPC)) 114 % of control; (dose: 25.0 mg/kg/injection, schedule: Q01DX001 (ip), vehicle: Klucel (hydroxypropylcellulose) (HPC)) 112 % of control.
Turning to `Nc1nc(S)cc(=O)[nH]1`, the T/C under setting [9] was 91 % of control; the T/C under setting [10] is 108 % of control; the T/C under setting [11] is 94 % of control; the T/C (dose: 400.0 mg/kg/injection, schedule: Q01DX009 (ip), vehicle: saline with Tween-80) is 99 % of control.
As to `COc1cc(C(N)CCc2ccc3c(c2)OCO3)cc(OC)c1OC` (stereo not given), the T/C runs as follows: under setting [12], 110 % of control; (dose: 100.0 mg/kg/injection, schedule: Q01DX005 (ip), vehicle: Klucel (hydroxypropylcellulose) (HPC)) 98 % of control.
Turning to `CC[C@@]1(O)C(=O)OCc2c1cc1n(c2=O)Cc2cc3ccccc3nc2-1`, the T/C is, setting by setting: (dose: 0.25 mg/kg/injection, schedule: Q04DX003 (ip), vehicle: other) 109 % of control; (dose: 0.5 mg/kg/injection, schedule: Q04DX003 (ip), vehicle: other) 119 % of control and 122 % of control; (dose: 0.79 mg/kg/injection, schedule: Q04DX003 (ip), vehicle: other) 151 % of control; (dose: 1.0 mg/kg/injection, schedule: Q04DX003 (ip), vehicle: other) 163 % of control; (dose: 1.5 mg/kg/injection, schedule: Q01DX005 (ip), vehicle: saline with Tween-80) 153 % of control and 161 % of control (2×); (dose: 1.57 mg/kg/injection, schedule: Q04DX003 (ip), vehicle: other) 161 % of control. Also, the T/C was 150 % of control (dose: 1.6 mg/kg/injection, schedule: Q04DX003 (ip), vehicle: saline with Tween-80); 157 % of control and 158 % of control (dose: 2.0 mg/kg/injection, schedule: Q04DX003 (ip), vehicle: other); 187 % of control (dose: 2.1 mg/kg/injection, schedule: Q01DX005 (ip), vehicle: saline with Tween-80); 181 % of control (dose: 2.5 mg/kg/injection, schedule: Q04DX003 (ip), vehicle: saline with Tween-80); 192 % of control and 194 % of control and 196 % of control (dose: 3.0 mg/kg/injection, schedule: Q01DX005 (ip), vehicle: saline with Tween-80); 278 % of control (dose: 3.13 mg/kg/injection, schedule: Q04DX003 (ip), vehicle: other). Moreover, the T/C is, setting by setting: (dose: 3.6 mg/kg/injection, schedule: Q01DX005 (ip), vehicle: saline with Tween-80) 277 % of control; (dose: 4.0 mg/kg/injection, schedule: Q04DX003 (ip), vehicle: other) 155 % of control and 197 % of control and 245 % of control; (dose: 5.0 mg/kg/injection, schedule: Q04DX002 (ip), vehicle: saline with Tween-80) 175 % of control; (dose: 8.0 mg/kg/injection, schedule: Q04DX003 (ip), vehicle: other) 92 % of control; (dose: 12.0 mg/kg/injection, schedule: Q01DX005 (ip), vehicle: saline with Tween-80) 87 % of control.
`COc1ccc(C(c2cc3c(cc2O)OCO3)N2CCCCC2)cc1` (stereo not given): the T/C was 114 % of control under setting [6], 112 % of control under setting [7] and 121 % of control under setting [8].
As for `CN1C(=O)N(C)C(O)(/C=C/c2c(Cl)cccc2Cl)N(C)C1=O`, the T/C is 106 % of control and 92 % of control (dose: 25.0 mg/kg/injection, schedule: Q01DX009 (ip), vehicle: saline with Tween-80); 94 % of control and 96 % of control under setting [9]; 93 % of control and 96 % of control under setting [10]; 89 % of control and 91 % of control under setting [11].
As for `CCc1nc(N)nc(N)c1-c1ccc(NCCCN)c(N)c1`, the T/C runs as follows: (dose: 12.5 mg/kg/injection, schedule: Q01DX005 (ip), vehicle: Klucel (hydroxypropylcellulose) (HPC)) 101 % of control; (dose: 25.0 mg/kg/injection, schedule: Q01DX005 (ip), vehicle: Klucel (hydroxypropylcellulose) (HPC)) 106 % of control; under setting [12], 110 % of control and 97 % of control.
`C=C(C)CCC(N)C(=O)O` (stereo not given): the T/C runs as follows: (dose: 12.5 mg/kg/injection, schedule: Q01DX009 (ip), vehicle: saline) 107 % of control; (dose: 25.0 mg/kg/injection, schedule: Q01DX009 (ip), vehicle: saline) 104 % of control; under setting [3], 100 % of control.
For `CCOC(=O)C1C(O)CC2c3ccccc3-c3ccccc3C21` (stereo not given), the T/C under setting [6] is 87 % of control and the T/C under setting [7] was 87 % of control.
As for `O=[N+]([O-])c1cccn2nc(COCCO)nc12`, the T/C was 97 % of control (dose: 12.5 mg/kg/injection, schedule: Q01DX005 (ip), vehicle: saline with Tween-80); 94 % of control (dose: 25.0 mg/kg/injection, schedule: Q01DX005 (ip), vehicle: saline with Tween-80); 97 % of control under setting [13]; 113 % of control under setting [1]; 109 % of control under setting [2].
Consider `CC(C)CCCCCCCCCCCCC(=O)NCC(=O)NC1C(CO)OC(Nc2ncnc3nc[nH]c23)C(O)C1O` (stereo not given), for which the T/C (dose: 0.13 mg/kg/injection, schedule: Q01DX009 (ip), vehicle: other) was 114 % of control; the T/C (dose: 0.5 mg/kg/injection, schedule: Q01DX009 (ip), vehicle: other) was 161 % of control; the T/C (dose: 1.0 mg/kg/injection, schedule: Q01DX009 (ip), vehicle: other) is 105 % of control; the T/C (dose: 2.0 mg/kg/injection, schedule: Q01DX009 (ip), vehicle: other) was 89 % of control.
Turning to `O=[N+]([O-])c1ccc(Sc2nccc(Cl)n2)c([N+](=O)[O-])c1`, the T/C is, setting by setting: (dose: 50.0 mg/kg/injection, schedule: Q01DX009 (ip), vehicle: suspension in saline) 100 % of control; under setting [4], 92 % of control; (dose: 100.0 mg/kg/injection, schedule: Q01DX009 (ip), vehicle: suspension in saline) 98 % of control; under setting [5], 104 % of control; (dose: 200.0 mg/kg/injection, schedule: Q01DX009 (ip), vehicle: suspension in saline) 91 % of control.
As for `FC(F)(F)c1ccc2nc3c(nc2c1)-c1ccc(Br)c2cccc-3c12`, the T/C by setting is: under setting [3], 115 % of control; under setting [4], 101 % of control; under setting [5], 99 % of control.
On to `COc1cc(N=Nc2ccccc2)cc(/C=N\NC(=S)Nc2cccc(C)c2)c1O`, for which, under setting [13], the T/C was 87 % of control.

The values above are taken from PubChem BioAssay AID330 (DTP/NCI, 2004).
